Measurements taken from patent US10300000B2, “Inhibition of melanogenesis by chemically modified curcumins” (The Research Foundation for The State University of New York, priority 2016, dated 2019).

Experiments:
[1] = system: αMSH-stimulated B16F10 cells; assay: Melanin content in αMSH-stimulated B16F10 cells; assay type: cell-based, mouse; set-up: unit of the concentration uncertain; settings: 48 hours
Description: (§1) B16F10 cells were seeded at 1×10^5 cells/well in 12-well plates and incubated for 24 hours. The test compounds were then added in presence or absence of αMSH (100 nM), and further incubated for another 48 hours. For evaluation of melanin content, cells were trypsinized, washed in PBS and then 250 μL of 1N NaOH was added and heated to 70° C. to solubilize melanin. The aliquots were then transferred to a 96-well plate and absorbance was read at 475 nm using microplate reader. The absorbance of melanin was normalized by total protein contents and reported as % of control.

[2] = system: intracellular ROS in B16F10 cells; assay: Intracellular ROS assay (H2DCFDA) in B16F10 cells; assay type: cell-based, mouse; settings: B16F10, 25 μM, 48 hours
Description: Intracellular ROS generation was quantified using 2′,7′-dichlorodihydrofluorescein diacetate (H2DCFDA), a non-fluorescent dye which is trapped intracellularly by cleavage by intracellular esterases after reaction with reactive oxygen species (ROS); only the product, DCF, is fluorescent. For measuring intracellular ROS, B16F10 cells were seeded in 24 well plates at 4×10^4 cells/well. After 24 hours, media was aspirated and PC, THC and CMCs were added to the wells at different concentrations and further incubated for 48 hours. At the end of the incubations, the media was aspirated and cells were washed with PBS. DCFDA (Molecular Probes) was dissolved in DMSO to make 10 mM stock. DCFDA dye working stock (50 μM) was prepared by diluting the stock in DMEM (serum-free, phenol-red free and sodium pyruvate free) media and added to cells and further incubated for 45 minutes at 37° C. The cells were then washed with DPBS and fluorescence was read in bottom read mode, using a fluorescence microplate reader (Gemini EM Spectramax, Molecular Devices) set to excitation and emission wavelengths of 485 nm and 535 nm, respectively. Data was expressed as relative fluorescence % of treated vs. control.

[3] = system: B16F10 mouse melanoma cells; assay type: cell-based; settings: B16F10, 5 μM, 48 hours, MTS
Description: In order to test the four CMCs (CMC2.14, CMC2.24, CMC2.5 and CMC2.23) alongside PC and THC, for their effects on melanin content, we first screened their nontoxic concentrations using MTS cytotoxicity (Promega CellTiter Aqueous One) assay. MTS is a tetrazolium salt which is reduced to purple colored formazan upon reaction with mitochondrial dehydrogenases. Briefly, B16F10 cells were seeded at 4×10^3 cells/well in 96-well plates for 24 hrs. […] Controls were treated with 0.16% DMSO. At the end of 48 hours, medium was aspirated and replaced by 100 μl of fresh media. MTS (20 μl) was added and incubated for 40 minutes and absorbance read at 490 nm using a Versamax® microplate reader. Cell viability was calculated from the absorbance values relative to control groups and expressed in %.

[4] = system: αMSH-stimulated B16F10 cells; assay: Melanin content in αMSH-stimulated B16F10 cells; assay type: cell-based, mouse
Description: as §1

Compound: COC(=O)C(C(=O)C=Cc1ccc(O)c(OC)c1)C(=O)C=Cc1ccc(O)c(OC)c1 (centres unmarked) [CMC2.5, 4-methoxycarbonyl curcumin]
- reduction of melanin ([1]; αMSH-stimulated B16F10, 20 (unit uncertain) as printed): 36%
- reduction of melanin ([1]; αMSH-stimulated B16F10, 25 (unit uncertain) as printed): 42%
- reduction of intracellular ROS [2]: 23%

Compound: COC(=O)C(C(=O)/C=C/c1ccc(O)cc1)C(=O)/C=C/c1ccc(O)cc1 [CMC2.14]
- increase of cell proliferation [3]: 26.2%

Compound: COc1cc(/C=C/C(=O)C(C(=O)/C=C/c2ccc(O)c(OC)c2)C(=O)Nc2ccccc2)ccc1O [CMC2.23]
- lightening of cell pellets [4]: visible lightening
